Data from patent US20140329868A1, “METHODS FOR TREATING HYPERTENSION” (TAKEDA PHARMACEUTICALS U.S.A., INC., priority 2005, published 2014).

Tests used:
[1] = test system: subjects having a systolic BP≧160 mmHg or diastolic BP≧95 mmHg (elevated blood pressure); test: Example 1: blood pressure change in subjects with elevated blood pressure, none taking antihypertensive agents at baseline (two double-blind studies); assay type: in vivo, human; settings: 300/100 mg QD
Description: A total of 103 subjects (9 in the placebo group, 26 in each the 2-[3-cyano-4-(2-methylpropoxy)phenyl]-4-methylthiazole-5-carboxylic acid (hereinafter referred to as “febuxostat”) 80 mg and 120 mg once daily (hereinafter referred to as “QD”) groups, 10 in the febuxostat 240 mg QD group and 32 in the 4-hydroxy-3,4-pyrazolopyrimidine (hereinafter referred to as “allopurinol”) 300/100 mg QD group), having a systolic BP≧160 mmHg or diastolic BP≧95 mmHg, and thus considered to have “elevated blood pressure”, were examined. Allopurinol […] xanthine oxidoreductase inhibitor.
None of the above subjects were taking any antihypertensive agents at the baseline (start) of the study. These […] subjects were part of two (2) double-blind (hereinafter referred to as “DB”) studies. One study was of 28 weeks in duration. During this time, the subjects received 80 mg, 120 mg or 240 mg QD of febuxostat, placebo or allopurinol 300 or 100 mg QD, depending on the subject's renal function. The second study was 52 weeks in duration. During this time, the subjects received 80 mg or 120 mg QD of febuxostat or allopurinol 300 mg QD.

[2] = test system: subjects having a systolic BP≧160 mmHg or diastolic BP≧95 mmHg (elevated blood pressure); test: Example 2: blood pressure change in subjects with elevated blood pressure, none taking angiotensin-converting enzyme inhibitors (two double-blind studies); assay type: in vivo, human; settings: 300/100 mg QD
Description: None of these subjects were taking any angiotensin-coverting enzyme inhibitors, but might have been taking some other type of antihypertensive drug at the baseline (start) of the study. These 158 subjects were part of two (2) DB studies. One study was of 28 weeks in duration during which subjects received 80 mg, 120 mg or 240 mg QD of febuxostat or placebo or allopurinol 300 or 100 mg QD, depending on the subject's renal function. The second study was 52 weeks in duration during which subjects received 80 mg or 120 mg QD of febuxostat or allopurinol 300 mg QD. […] A total of 52 weeks of treatment was completed by 15 subjects in the febuxostat 80 mg QD group, 9 in the febuxostat 120 mg QD group and 17 in the allopurinol 300/100 mg QD group. Because of the shorter duration of one of the two DB studies, no subject in the placebo and febuxostat 240 mg QD groups was treated for 52 weeks.

[3] = test system: subjects having a systolic BP≧160 mmHg or diastolic BP≧95 mmHg (elevated blood pressure); test: Example 3: blood pressure change in subjects with elevated blood pressure, none taking angiotensin antagonists (two double-blind studies); assay type: in vivo, human; settings: 300/100 mg QD
Description: None of these subjects were taking any angiotensin antagonists, but might have been taking some other type of antihypertensive drug at the baseline (start) of the study. These 187 subjects were part of two (2) DB studies. One study was of 28 weeks in duration during which subjects received 80 mg, 120 mg or 240 mg QD of febuxostat or placebo or allopurinol 300 or 100 mg QD, depending on the subject's renal function. The second study was of 52 weeks in duration during which subjects received 80 mg or 120 mg QD of febuxostat or allopurinol 300 mg QD. Of these 187 subjects, all completed 4 weeks of treatment and 132 completed 28 weeks of treatment. A total of 52 weeks of treatment was completed by 15 subjects in the febuxostat 80 mg QD group, 11 in the febuxostat 120 mg QD group and 22 in the allopurinol 300/100 mg QD group. Because of the shorter duration of one of the 2 DB studies, no subject in the placebo and febuxostat 240 mg QD groups were treated for 52 weeks.

[4] = biological target: T1, purine nucleotide phosphorylase (Homo sapiens, UniProt P00491); settings: at a therapeutically effective amount in a subject; stated as known; cited from earlier work
T1 sequence (P00491 1-289): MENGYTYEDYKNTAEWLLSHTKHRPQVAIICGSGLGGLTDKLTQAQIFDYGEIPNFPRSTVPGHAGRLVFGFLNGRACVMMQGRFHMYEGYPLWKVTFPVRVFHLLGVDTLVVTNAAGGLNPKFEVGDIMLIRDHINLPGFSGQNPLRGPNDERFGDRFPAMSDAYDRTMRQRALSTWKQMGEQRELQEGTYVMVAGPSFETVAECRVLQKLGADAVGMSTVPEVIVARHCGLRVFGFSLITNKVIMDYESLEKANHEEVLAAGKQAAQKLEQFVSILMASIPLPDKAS

[5] = biological target: orotidine-5-monophosphate decarboxylase (Homo sapiens, UniProt P11172); settings: at a therapeutically effective amount in a subject; stated as known; cited from earlier work
Sequence of orotidine-5-monophosphate decarboxylase (P11172 whole entry): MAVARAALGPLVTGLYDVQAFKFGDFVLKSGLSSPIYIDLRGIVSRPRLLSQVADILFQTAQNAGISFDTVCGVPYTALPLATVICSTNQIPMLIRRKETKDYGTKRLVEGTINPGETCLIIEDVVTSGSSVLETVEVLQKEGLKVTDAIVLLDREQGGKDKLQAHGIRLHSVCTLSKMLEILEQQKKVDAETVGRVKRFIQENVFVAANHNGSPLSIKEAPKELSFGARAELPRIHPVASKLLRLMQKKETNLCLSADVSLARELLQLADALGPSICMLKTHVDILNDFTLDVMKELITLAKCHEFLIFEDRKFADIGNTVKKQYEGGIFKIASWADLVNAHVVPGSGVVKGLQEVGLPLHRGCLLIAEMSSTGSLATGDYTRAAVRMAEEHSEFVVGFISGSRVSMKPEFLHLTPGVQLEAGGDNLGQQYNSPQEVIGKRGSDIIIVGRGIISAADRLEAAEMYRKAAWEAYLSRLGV

Oc1ncnc2[nH]ncc12 [allopurinol, 4-hydroxy-3,4-pyrazolopyrimidine]
mean change from baseline for diastolic BP ([1]; after 4 weeks of treatment): −6.3 mmHg
mean change from baseline for mean arterial BP ([1]; after 4 weeks of treatment): −6.8 mmHg
mean change from baseline for systolic BP ([1]; after 4 weeks of treatment): −7.7 mmHg
mean change from baseline for diastolic BP ([1]; after 28 weeks of treatment): −8.2 mmHg
mean change from baseline for mean arterial BP ([1]; after 28 weeks of treatment): −7.8 mmHg
mean change from baseline for systolic BP ([1]; after 28 weeks of treatment): −7.0 mmHg
mean change from baseline for diastolic BP ([1]; after 52 weeks of treatment): −10.9 mmHg
mean change from baseline for mean arterial BP ([1]; after 52 weeks of treatment): −10.4 mmHg
mean change from baseline for systolic BP ([1]; after 52 weeks of treatment): −9.4 mmHg
mean change from baseline for diastolic BP ([2]; after 4 weeks of treatment): −6.7 mmHg
mean change from baseline for mean arterial BP ([2]; after 4 weeks of treatment): −6.7 mmHg
mean change from baseline for systolic BP ([2]; after 4 weeks of treatment): −6.6 mmHg
mean change from baseline for diastolic BP ([2]; after 28 weeks of treatment): −10.1 mmHg
mean change from baseline for mean arterial BP ([2]; after 28 weeks of treatment): −9.8 mmHg
mean change from baseline for systolic BP ([2]; after 28 weeks of treatment): −9.1 mmHg
mean change from baseline for diastolic BP ([2]; after 52 weeks of treatment): −11.4 mmHg
mean change from baseline for mean arterial BP ([2]; after 52 weeks of treatment): −10.8 mmHg
mean change from baseline for systolic BP ([2]; after 52 weeks of treatment): −9.5 mmHg
mean change from baseline for diastolic BP ([3]; after 4 weeks of treatment): −5.7 mmHg
mean change from baseline for mean arterial BP ([3]; after 4 weeks of treatment): −6.1 mmHg
mean change from baseline for systolic BP ([3]; after 4 weeks of treatment): −7.0 mmHg
mean change from baseline for diastolic BP ([3]; after 28 weeks of treatment): −8.7 mmHg
mean change from baseline for mean arterial BP ([3]; after 28 weeks of treatment): −8.8 mmHg
mean change from baseline for systolic BP ([3]; after 28 weeks of treatment): −9.0 mmHg
mean change from baseline for diastolic BP ([3]; after 52 weeks of treatment): −11.6 mmHg
mean change from baseline for mean arterial BP ([3]; after 52 weeks of treatment): −11.1 mmHg
mean change from baseline for systolic BP ([3]; after 52 weeks of treatment): −10.0 mmHg
effect on the activity of purine nucleotide phosphorylase [4]: has an effect
effect on the activity of orotidine-5-monophosphate decarboxylase [5]: has an effect
